Laboratory results: patent US20050220726A1, “Use of sugar esters in cosmetic and/or pharmaceutical preparations” (priority 2003, published 2005)

Columns and labels:
Format in all cases: cell-based
human keratinocytes = experiment: Protecting cells against UVB radiation (cell DNA, LDH and PGE2 release); details: + UV-B 50 mJ/cm^2; for Cell DNA: blank = 100, control + UV-B = 33; for LDH released / PGE2 released: control + UV-B = 100
Experimental: UVB was selected as the stress factor because the rays produce cutaneous inflammation (erythemas, oedemas) by activating enzymes that release arachidonic acid, such as phospholipase A2 (PLA2) for example. […] The influence of UVB rays on keratinocytes was determined in vitro through the release of cytoplasmatic enzymes, such as LDH (lactate dehydrogenase) for example, which runs parallel to the cell damage and the formation of PGE2. […] The quantity of keratinocytes was determined after trypsination via a cell counter while the LDH concentration was enzymatically determined. The results are set out in Table 4, where they are expressed as the activity in %-rel. against a standard, and represent the mean value of two test series involving double determination.

Staphylococcus aureus = experiment: Agar dilution method (MIC determination); details: 18 to 24 h at 37° C.
Experimental: (§1) The antibacterial activity of the test substances was tested by the diffusion method on agar plates or the agar dilution method. In this method, a round filter paper of defined diameter is first impregnated with the test solution and then applied to the surface of an agar plate inoculated beforehand with the test microorganisms. The size of the inhibition zones is then determined after defined times. In particular, it is possible by this method to determine the MIC (Minimum Inhibitory Concentration) as the lowest concentration of test substance with which complete inhibition of the microorganisms can be obtained. Agar dilution method (MIC determination). Various agars were prepared as described above, test substances were added in various concentrations, homogenized and dried. The Petri dishes were then inoculated with quantities of 2 μl of the bacterial suspension. After each drying step the Petri dishes were incubated for 18 to 24 h at 37° C. […] The results represent the averages of double determinations.

Propionibacterium acnes = experiment: Agar dilution method (MIC determination); details: 18 to 24 h at 37° C.
Experimental: as §1

[1] = system: Staphylococcus epidermidis; experiment: Agar dilution method (MIC determination); details: 18 to 24 h at 37° C.
Experimental: as §1

Fructose caprate
Cell DNA (human keratinocytes; conc. 0.001 % w/v): 32 %-rel. | LDH released (human keratinocytes; conc. 0.001 % w/v): 68 %-rel. | PGE2 released (human keratinocytes; conc. 0.001 % w/v): 35 %-rel. | Cell DNA (human keratinocytes; conc. 0.003 % w/v): 140 %-rel. | LDH released (human keratinocytes; conc. 0.003 % w/v): 0 %-rel. | PGE2 released (human keratinocytes; conc. 0.003 % w/v): 0 %-rel. | MIC, Staphylococcus aureus (Staphylococcus aureus): 1250 µg/mL | MIC, Propionibacterium acnes (Propionibacterium acnes): 625 µg/mL | MIC, Staphylococcus epidermidis [1]: 1250 µg/mL
